Laboratory results as given in patent US12384770B2, “Heterocyclic compound” (Takeda Pharmaceutical Company Limited, priority 2019, dated 2025).

Target: T1, HDAC6 enzyme (Homo sapiens, UniProt Q9UBN7)
T1 construct: HDAC6 enzyme prepared by transducing full length HDAC6 gene into Sf-9 insect cells; GST; purchased SignalChem; host or cells: Sf-9 insect cells
T1 sequence (Q9UBN7 1-1215): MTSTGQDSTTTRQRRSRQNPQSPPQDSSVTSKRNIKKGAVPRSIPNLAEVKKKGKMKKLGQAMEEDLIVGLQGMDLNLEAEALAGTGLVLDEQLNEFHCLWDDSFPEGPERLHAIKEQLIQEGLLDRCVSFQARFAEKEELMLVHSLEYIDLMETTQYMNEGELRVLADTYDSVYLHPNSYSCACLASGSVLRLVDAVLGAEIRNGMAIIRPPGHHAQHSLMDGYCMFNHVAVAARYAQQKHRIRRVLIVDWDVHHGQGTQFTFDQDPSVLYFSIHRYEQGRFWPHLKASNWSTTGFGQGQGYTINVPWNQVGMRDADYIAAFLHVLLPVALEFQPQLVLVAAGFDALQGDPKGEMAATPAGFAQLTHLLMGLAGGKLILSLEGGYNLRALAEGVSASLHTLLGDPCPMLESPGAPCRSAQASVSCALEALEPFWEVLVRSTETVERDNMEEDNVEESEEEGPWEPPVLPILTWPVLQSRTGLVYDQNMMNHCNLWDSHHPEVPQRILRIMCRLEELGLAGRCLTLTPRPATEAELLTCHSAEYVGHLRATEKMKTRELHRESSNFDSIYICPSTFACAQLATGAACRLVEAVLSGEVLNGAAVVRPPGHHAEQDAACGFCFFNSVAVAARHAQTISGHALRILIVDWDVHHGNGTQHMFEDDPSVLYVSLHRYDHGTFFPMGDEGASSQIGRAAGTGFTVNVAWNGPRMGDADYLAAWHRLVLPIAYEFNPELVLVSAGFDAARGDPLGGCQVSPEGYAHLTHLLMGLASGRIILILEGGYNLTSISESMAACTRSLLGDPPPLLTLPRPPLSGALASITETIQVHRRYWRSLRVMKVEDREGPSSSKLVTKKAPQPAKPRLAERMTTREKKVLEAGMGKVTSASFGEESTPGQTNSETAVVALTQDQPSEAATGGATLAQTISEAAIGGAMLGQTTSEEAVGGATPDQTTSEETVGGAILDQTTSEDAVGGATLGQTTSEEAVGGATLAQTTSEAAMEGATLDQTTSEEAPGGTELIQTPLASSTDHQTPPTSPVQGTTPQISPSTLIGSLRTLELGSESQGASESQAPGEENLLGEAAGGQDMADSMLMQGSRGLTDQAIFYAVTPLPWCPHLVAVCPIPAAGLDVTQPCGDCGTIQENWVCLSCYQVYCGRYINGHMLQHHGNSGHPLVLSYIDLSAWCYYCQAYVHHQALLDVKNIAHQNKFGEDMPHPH
Assay: HDAC6 enzyme inhibitory assay (HDAC-Glo I/II Assay kit)
Format: biochemical
Conditions: wells without enzyme = 100% inhibition; for inhibition at 10 µM: read-out: HDAC6 inhibitory rate (%) (10 μM)
Description: Experimental Example 1 HDAC6 Enzyme Inhibitory Assay
HDAC6 enzyme prepared by transducing full length HDAC6 gene into Sf-9 insect cells and purifying by GST affinity column were purchased from SignalChem. Using this enzyme, HDAC6 enzyme inhibitory activity of the compound of the present invention were evaluated. Enzymes were used after preserved at −70° C. HDAC6 enzyme inhibitory activity of the compound of the present invention was measured using HDAC-Glo™ I/II Assay kit (Promega) according to the following experimental method. The test compound diluted with assay buffer (24 mM Tris-HCl (pH 7.5), 1 mM MgCl2, 0.35 mM KCl, 135 mM NaCl, 0.6 mM Glutathione, 0.01% Tween-20) was added to a 384-well plate by each 2 μL. Then, HDAC6 enzyme solution diluted with assay buffer was added thereto by each 4 μL, and the plate was incubated at room temperature for 60 min. After incubated, HDAC substrate-Developer solution prepared according to Promega protocol attached to the assay kit was added to the 384-well plate by each 2 μL, and the enzyme reaction was started. After reacting at room temperature for 20 min, luminescence level was measured using plate reader Envision (PerkinElmer). The inhibitory activity of each compound of Example was calculated as a relative activity value when luminescence level in wells without enzyme is considered as 100% inhibition.

| Compound | inhibition at 10 µM | also measured |
| --- | --- | --- |
| O=C1c2cc(-c3nnc(C(F)F)o3)ccc2CN1[C@H](c1ccc(F)cc1)[C@@H](O)c1ccc(C(F)(F)F)nc1 (relative stereo) [Example 55, 6-[5-(difluoromethyl)-1,3,4-oxadiazol-2-yl]-2-{(1R*,2S)-1-(4-fluorophenyl)-2-hydroxy-2-[6-(trifluoromethyl)pyridin-3-yl]ethyl}-2,3-dihydro-1H-isoindol-1-one] | 98% | – |
| O=C1c2cc(-c3nnc(C(F)F)o3)ccc2CN1[C@H](c1cccnn1)[C@@H](O)c1ccc(Cl)cc1 (relative stereo) [Example 110, 2-[(1R*,2S)-2-(4-chlorophenyl)-2-hydroxy-1-(pyridazin-3-yl)ethyl]-6-[5-(difluoromethyl)-1,3,4-oxadiazol-2-yl]-2,3-dihydro-1H-isoindol-1-one] | 100% | – |
| O=C1c2cc(-c3nnc(C(F)F)o3)ccc2CN1[C@H](c1ccc(F)cc1F)[C@@H](O)c1ccc(F)cc1 (single isomer, unassigned) [Example 32, 6-[5-(difluoromethyl)-1,3,4-oxadiazol-2-yl]-2-[(1R*,2S*)-1-(2,4-difluorophenyl)-2-(4-fluorophenyl)-2-hydroxyethyl]-2,3-dihydro-1H-isoindol-1-one] | 99% | – |
| O=C1c2cc(-c3nnc(C(F)F)o3)ccc2CN1[C@H](c1ccc(F)cc1F)[C@@H](O)c1ccc(F)cc1 (single isomer, unassigned) [Example 33, 6-[5-(difluoromethyl)-1,3,4-oxadiazol-2-yl]-2-[(1R*,2S*)-1-(2,4-difluorophenyl)-2-(4-fluorophenyl)-2-hydroxyethyl]-2,3-dihydro-1H-isoindol-1-one] | – | HDAC6 inhibitory rate (%) (10 μM) (10 µM): 100% |
| O=C1c2cc(-c3nnc(C(F)F)o3)ccc2CN1[C@H](c1ccc(F)nc1)[C@@H](O)c1ccc(F)cc1 (single isomer, unassigned) [Example 34, 6-[5-(difluoromethyl)-1,3,4-oxadiazol-2-yl]-2-[(1R*,2S*)-2-(4-fluorophenyl)-1-(6-fluoropyridin-3-yl)-2-hydroxyethyl]-2,3-dihydro-1H-isoindol-1-one] | 100% | – |
| O=C1c2cc(-c3nnc(C(F)F)o3)ccc2CN1[C@H](c1ccc(F)nc1)[C@@H](O)c1ccc(F)cc1 (single isomer, unassigned) [Example 35, 6-[5-(difluoromethyl)-1,3,4-oxadiazol-2-yl]-2-[(1R*,2S*)-2-(4-fluorophenyl)-1-(6-fluoropyridin-3-yl)-2-hydroxyethyl]-2,3-dihydro-1H-isoindol-1-one] | – | HDAC6 inhibitory rate (%) (10 μM): 100% |
| O=C1c2cc(-c3nnc(C(F)F)o3)ccc2CN1[C@H](c1ccccn1)[C@@H](O)c1ccc(F)cc1 (single isomer, unassigned) [Example 36, 6-[5-(difluoromethyl)-1,3,4-oxadiazol-2-yl]-2-[(1R*,2S*)-2-(4-fluorophenyl)-2-hydroxy-1-(pyridin-2-yl)ethyl]-2,3-dihydro-1H-isoindol-1-one] | 101% | – |

More lines, main results first:

| inhibition at 10 µM | Compound | also measured |
| --- | --- | --- |
| 100% | O=C1c2cc(-c3nnc(C(F)F)o3)ccc2CN1[C@H](c1ccccc1)[C@H](O)c1ccccc1F (racemic) [Example 139, 6-[5-(difluoromethyl)-1,3,4-oxadiazol-2-yl]-2-[(1RS,2RS)-2-(2-fluorophenyl)-2-hydroxy-1-phenylethyl]-2,3-dihydro-1H-isoindol-1-one] | – |
| 98% | O=C1c2cc(-c3nnc(C(F)F)o3)ccc2CN1[C@H](c1ccc(F)cc1)[C@H](O)C1CC1 (racemic) [Example 140, 2-[(1RS,2RS)-2-cyclopropyl-1-(4-fluorophenyl)-2-hydroxyethyl]-6-[5-(difluoromethyl)-1,3,4-oxadiazol-2-yl]-2,3-dihydro-1H-isoindol-1-one] | – |
| 99% | O=C1c2cc(-c3nnc(C(F)F)o3)ccc2CN1[C@H](c1ccccn1)[C@H](O)c1ccc(F)cc1 (racemic) [Example 141, 6-[5-(difluoromethyl)-1,3,4-oxadiazol-2-yl]-2-[(1RS,2RS)-2-(4-fluorophenyl)-2-hydroxy-1-(pyridin-2-yl)ethyl]-2,3-dihydro-1H-isoindol-1-one] | – |
| 100% | O=C1c2cc(-c3nnc(C(F)F)o3)ccc2CN1[C@H](c1ccc(F)cc1)[C@H](O)c1ccc(C(F)(F)F)nc1 (racemic) [Example 142, 6-[5-(difluoromethyl)-1,3,4-oxadiazol-2-yl]-2-{(1RS,2RS)-1-(4-fluorophenyl)-2-hydroxy-2-[6-(trifluoromethyl)pyridin-3-yl]ethyl}-2,3-dihydro-1H-isoindol-1-one] | – |
| 100% | O=C1c2cc(-c3nnc(C(F)F)o3)ccc2CN1[C@H](c1ccccn1)[C@H](O)c1ccccc1 (racemic) [Example 143, 6-[5-(difluoromethyl)-1,3,4-oxadiazol-2-yl]-2-[(1RS,2RS)-2-hydroxy-2-phenyl-1-(pyridin-2-yl)ethyl]-2,3-dihydro-1H-isoindol-1-one] | – |
| 100% | O=C1c2cc(-c3nnc(C(F)F)o3)ccc2CN1[C@H](c1ccc(F)cn1)[C@H](O)c1ccccn1 (racemic) [Example 144, 6-[5-(difluoromethyl)-1,3,4-oxadiazol-2-yl]-2-[(1RS,2SR)-1-(5-fluoropyridin-2-yl)-2-hydroxy-2-(pyridin-2-yl)ethyl]-2,3-dihydro-1H-isoindol-1-one] | – |
| 99% | O=C1c2cc(-c3nnc(C(F)F)o3)ccc2CN1[C@@H](c1ccccn1)[C@@H](O)c1cccc(F)c1 (racemic) [Example 145, 6-[5-(difluoromethyl)-1,3,4-oxadiazol-2-yl]-2-[(1SR,2SR)-2-(3-fluorophenyl)-2-hydroxy-1-(pyridin-2-yl)ethyl]-2,3-dihydro-1H-isoindol-1-one] | – |
| 95% | O=C1c2cc(-c3nnc(C(F)F)o3)ccc2CN1[C@@H](c1ccc(F)cc1F)[C@@H](O)c1ccc(F)cc1 (racemic) [Example 146, 6-[5-(difluoromethyl)-1,3,4-oxadiazol-2-yl]-2-[(1SR,2SR)-1-(2,4-difluoro-phenyl)-2-(4-fluorophenyl)-2-hydroxy-ethyl]-2,3-dihydro-1H-isoindol-1-one] | – |
| 99% | O=C1c2cc(-c3nnc(C(F)F)o3)ccc2CN1[C@H](c1ccc(F)cc1)[C@H](O)c1cccc(F)c1 (racemic) [Example 147, 6-[5-(difluoromethyl)-1,3,4-oxadiazol-2-yl]-2-[(1RS,2RS)-2-(3-fluorophenyl)-1-(4-fluorophenyl)-2-hydroxyethyl]-2,3-dihydro-1H-isoindol-1-one] | – |
| 101% | O=C1c2cc(-c3nnc(C(F)F)o3)ccc2CN1[C@H](c1cccnn1)[C@@H](O)c1cccc(Cl)c1 (relative stereo) [Example 121, 2-[(1R*,2S)-2-(3-chlorophenyl)-2-hydroxy-1-(pyridazin-3-yl)ethyl]-6-[5-(difluoromethyl)-1,3,4-oxadiazol-2-yl]-2,3-dihydro-1H-isoindol-1-one] | – |
| 101% | O=C1c2cc(-c3nnc(C(F)F)o3)ccc2CN1[C@H](c1cccc(F)n1)[C@@H](O)c1ccc(F)cn1 (relative stereo) [Example 125, 6-[5-(difluoromethyl)-1,3,4-oxadiazol-2-yl]-2-[(1R*,2R)-2-(5-fluoropyridin-2-yl)-1-(6-fluoropyridin-2-yl)-2-hydroxyethyl]-2,3-dihydro-1H-isoindol-1-one] | – |
